Where two headings read alike, the source gives them in different places. Each block holds one compound with its values, some of them ahead of it.
System: PMA-differentiated THP-1 cells
Test: IL-1β production in PMA-differentiated THP-1 cells stimulated with gramicidin (hTHP-1 assay containing 2% fetal bovine serum; Procedures 1 and 2)
Type: cell-based, human
Details: 2% fetal bovine serum
Method in brief: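 THP-1 cells were differentiated with PMA (20 ng/ml, 16-18 h), detached, and plated at 50,000 cells/well in RPMI 1640 with 2% FBS. They were pre-treated with compound (0.0017–100 μM, 0.37% DMSO) for 1 h, then stimulated with gramicidin (5 μM) for 2 h. Supernatant IL-1β was measured by HTRF.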

[1] = Table B3, hTHP-1 assay, class symbols, read-out: IC50
[2] = Table B1, class symbols, read-out: Average IC50 of compounds in hTHP-1 assay: hTHP-1 IC50
[3] = Homo sapiens, THP-1, Table B3, hTHP-1 assay, class symbols, read-out: IC50
[4] = Homo sapiens, THP-1, Table B2, class symbols, read-out: hTHP-1 IC50

IC50 [1]: 5 to 30 µM
Structure (SMILES): CCc1c(CC(F)(F)F)nc2c(c1NC(=O)N=S(N)(=O)c1sc(C(C)(C)O)cc1F)CCC2 (single isomer, unassigned) [Example 640, (S) or (R)-N′-((3-ethyl-2-(2,2,2-trifluoroethyl)-6,7-dihydro-5H-cyclopenta[b]pyridin-4-yl)carbamoyl)-3-fluoro-5-(2-hydroxypropan-2-yl) thiophene-2-sulfonimidamide]

IC50 [2]: 0.008 to 0.04 µM
Structure (SMILES): CC(C)(O)c1cc(F)c(S(N)(=O)=NC(=O)Nc2c3c(nc4c2CCC42CC2)CCC3)s1 (single isomer, unassigned) [Compound 101b, (R) or (S)-3-fluoro-5-(2-hydroxypropan-2-yl)-N′-((1′,5′,6′,7′-tetrahydro-2′H-spiro[cyclopropane-1,3′-dicyclopenta[b,e]pyridin]-8′-yl)carbamoyl)thiophene-2-sulfonimidamide]

IC50 [2]: 5 to 30 µM
Structure (SMILES): CC1CCc2c1nc1c(c2NC(=O)N=S(N)(=O)c2cc(C(C)(C)O)cs2)CCC1 (single isomer, unassigned) [Compound 141bb, (S,R) or (S,S)-4-(2-hydroxypropan-2-yl)-N′-((3-methyl-1,2,3,5,6,7-hexahy-drodicyclopenta[b,e]pyridin-8-yl)carbamoyl)thiophene-2-sulfonimidamide]

IC50 [1]: 5 to 30 µM
Structure (SMILES): NS(=O)(=NC(=O)Nc1c2c(nc(C3CC3)c1C1CC1)CCC2)c1ccn(C(F)F)n1 (single isomer, unassigned) [Example 696, (S) or (R)-N′-((2,3-dicyclopropyl-6,7-dihydro-5H-cyclopenta [b]pyridin-4-yl)carbamoyl)-1-(difluoromethyl)-1H-pyrazole-3-sulfonimidamide]

IC50 (Homo sapiens, THP-1, Table B1, numeric bounds, read-out: Average IC50 of compounds in hTHP-1 assay: hTHP-1 IC50): > 30 µM
Structure (SMILES): CC(C)(O)c1ncc(S(N)(=O)=NC(=O)Nc2cc(-c3ccccc3)nc3c2CCC3)s1 (centres unmarked) [Compound 142, 2-(2-hydroxypropan-2-yl)-N′-((2-phenyl-6,7-dihydro-5H-cyclopenta[b]pyridin-4-yl)carbamoyl)thiazole-5-sulfonimidamide]

IC50 [3]: 1 to 5 µM
Structure (SMILES): Cc1c(C2(F)CC2)nc2c(c1NC(=O)N=[S@@](N)(=O)c1cnc(C(C)(C)O)s1)CCC2 [Example 579, (R)-N′-((2-(1-fluorocyclopropyl)-3-methyl-6,7-dihydro-5H-cyclopenta[b]pyridin-4-yl)carbamoyl)-2-(2-hydroxypropan-2-yl)thiazole-5-sulfonimidamide]

IC50 [1]: 1 to 5 µM
Structure (SMILES): CCn1cc(F)c(S(N)(=O)=NC(=O)Nc2c3c(nc4c2CCC4(C)C)CCC3)n1 (single isomer, unassigned) [Example 716, (S) or (R)-N′-((3,3-dimethyl-1,2,3,5,6,7-hexahydrodicyclopenta[b,e]pyridin-8-yl)carbamoyl)-1-ethyl-4-fluoro-1H-pyrazole-3-sulfonimidamide]

IC50 [4]: 0.2 to 1 µM
Structure (SMILES): CCc1nc2c(c(NC(=O)N=S(N)(=O)c3cc(C(C)(C)O)cs3)c1C1CC1)CCC2 (centres unmarked) [Compound 654, N′-((3-cyclopropyl-2-ethyl-6,7-dihydro-5H-cyclopenta[b]pyridin-4-yl)carbamoyl)-4-(2-hydroxypropan-2-yl)thiophene-2-sulfonimidamide]

IC50 [3]: 0.04 to 0.2 µM
Structure (SMILES): CCn1cc(F)c(S(N)(=O)=NC(=O)Nc2c(C)c(C(F)(F)F)nc3c2CCC3)n1 (centres unmarked) [Example 597, 1-Ethyl-4-fluoro-N′-((3-methyl-2-(trifluoromethyl)-6,7-dihydro-5H-cyclopenta[b]pyridin-4-yl)calbamoyl)-1H-pyrazole-3-sulfonimidamide]

IC50 (Table B2, class symbols, read-out: hTHP-1 IC50): 0.2 to 1 µM
Structure (SMILES): CC1(C)CCc2c1nc1c(c2NC(=O)N=S(N)(=O)c2sc(C(C)(O)CO)cc2F)CCC1 (centres unmarked) [Compound 640, 5-(1,2-Dihydroxypropan-2-yl)-N′-((3,3-dimethyl-1,2,3,5,6,7-hexahydrodicyclopenta[b,e]pyridin-8-yl)carbamoyl)-3-fluorothiophene-2-sulfonimidamide]

IC50 [2]: 5 to 30 µM
Structure (SMILES): CC1CCc2c1nc1c(c2NC(=O)N=S(N)(=O)c2sc(C(C)(C)O)cc2F)CCC1 (single isomer, unassigned) [Compound 103ab, (S,S) or (S,R)-3-fluoro-5-(2-hydroxypropan-2-yl)-N′-((3-methyl-1,2,3,5,6,7-hexahydrodicyclo-penta[b,e]pyridin-8-yl)carbamoyl)thiophene-2-sulfonimidamide]

IC50 [3]: 1 to 5 µM
Structure (SMILES): CCc1ccsc1S(N)(=O)=NC(=O)Nc1c2c(nc3c1CC[C@H]3C)CCC2 (stereo partly drawn) [Example 631, 3-Ethyl-N′-(((R)-3-methyl-1,2,3,5,6,7-hexahydrodicyclopenta[b,e]pyridin-8-yl)carbamoyl)thiophene-2-sulfonimidamide]

IC50 (Homo sapiens, THP-1, Table B1, class symbols, read-out: Average IC50 of compounds in hTHP-1 assay: hTHP-1 IC50): 1 to 5 µM
Structure (SMILES): CC(C)(O)c1cnc(S(N)(=O)=NC(=O)Nc2c3c(nc4c2CCC4)CCC3)s1 (centres unmarked) [Compound 167]

IC50 [4]: 0.2 to 1 µM
Structure (SMILES): CC1(C)CCc2c1nc1c(c2NC(=O)N=S(N)(=O)c2cnc(C(O)(CO)CO)s2)CCC1 (centres unmarked) [Compound 734, N′-((3,3-dimethyl-1,2,3,5,6,7-hexahydrodicyclopenta[b,e]pyridin-8-yl)carbamoyl)-2-(1,2,3-trihydroxypropan-2-yl)thiazole-5-sulfonimidamide]

IC50 (Homo sapiens, THP-1, Table B3, hTHP-1 assay, numeric values, read-out: IC50): > 30 µM
Structure (SMILES): CC(C)(O)c1cnc(S(N)(=O)=NC(=O)Nc2c3c(nc4c2CCC4O)CCC3)s1 (centres unmarked) [Example 635, N′-((3-hydroxy-1,2,3,5,6,7-hexahydrodicyclopenta[b,e]pyridin-8-yl)carbamoyl)-5-(2-hydroxypropan-2-yl)thiazole-2-sulfonimidamide]

IC50 [2]: 0.2 to 1 µM
Structure (SMILES): Cc1c(C2CC2)nc2c(c1NC(=O)N=S(N)(=O)c1cnc(C(C)(C)O)s1)CCC2 (single isomer, unassigned) [Compound 124b, (R) or (S)-N′-((2-cyclopropyl-3-methyl-6,7-dihydro-5H-cyclopenta[b]pyridin-4-yl)carbamoyl)-2-(2-hydroxypropan-2-yl)thiazole-5-sulfonimidamide]

IC50 [3]: 0.008 to 0.04 µM
Structure (SMILES): CCn1cc(F)c(S(N)(=O)=NC(=O)Nc2c3c(nc4c2CC[C@H]4C)CCC3)n1 (stereo partly drawn) [Example 602, 1-Ethyl-4-fuoro-N′-(((R)-3-methyl-1,2,3,5,6,7-hexahydrodicyclopenta[b,e]pyridin-8-yl)carbamoyl)-1H-pyrazole-3-sulfonimidamide]

IC50 (Homo sapiens, THP-1, Table B2, numeric bounds, read-out: hTHP-1 IC50): > 30 µM
Structure (SMILES): CCC1CCc2c1nc1c(c2NC(=O)N=S(N)(=O)c2cnc(C(C)(C)O)s2)CCC1 (single isomer, unassigned) [Compound 662b, (S, R) or (S, S) or (R, S) or (R, R)-N′-((3-Ethyl-1,2,3,5,6,7-hexaliydrodicyclopenta [b,e]pyridin-8-yl)caibamoyl)-2-(2-hydroxypropan-2-yl)thiazole-5-sulfonimidamide]

IC50 [2]: 5 to 30 µM
Structure (SMILES): CC1CCc2c1nc1c(c2NC(=O)N=S(N)(=O)c2sc(C(C)(C)O)nc2CO)CCC1 (single isomer, unassigned) [Compound 168a, (S,R/S) or (R,R/S)-4-(hydroxymethyl)-2-(2-hydroxypropan-2-yl)-N′-((3-methyl-1,2,3,5,6,7-hexahydro-dicyclopenta[b,e]pyridin-8-yl)carbamoyl)thiazole-5-sulfonimidamide]

IC50 [4]: 5 to 30 µM
Structure (SMILES): Cc1c(C(C)(C)C)nc2c(c1NC(=O)N=S(N)(=O)c1cc(C(C)(C)O)cs1)CCC2 (single isomer, unassigned) [Compound 657b, (R) or (S)-N′-((2-(tert-butyl)-3-methyl-6,7-dihydro-5H-cyclopenta[b]pyridin-4-yl)carbamoyl)-4-(2-hydroxypropan-2-yl)thiophene-2-sulfonimidamide]
